Experimental data from PubChem BioAssay AID1919015 (Molecular Pharmacology Branch, DTP, NCI, 2023).

System: OVCAR-5 complex spheroids with HUVEC/MSC, viability, % test/control
Assay: Anticancer human tumor OVCAR-5 cell line growth inhibition [AhR];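 also: spheroids exposed to compounds for 7 days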;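 as to viability, T/C: 100% = DMSO vehicle control wells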
Conditions: for IC50: curve of first compound; for viability, T/C: stronger effect = lower value
In short: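 Spheroids combined tumor cells with HUVEC endothelial cells and human MSCs as stroma. AhR antagonists were paired with standard or investigational drugs, each dosed in half-log steps down from near clinical Cmax, or from 10 microM where Cmax was unknown.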

[1] = second compound 0.1 µM, first compound 0.0316 µM
[2] = second compound 0.1 µM, first compound 0.1 µM
[3] = second compound 0.316 µM, first compound 0.0316 µM
[4] = second compound 0.316 µM, first compound 0.1 µM
[5] = second compound 1 µM, first compound 0.0316 µM
[6] = second compound 1 µM, first compound 0.1 µM
[7] = second compound 3.16 µM, first compound 0.0316 µM
[8] = second compound 3.16 µM, first compound 0.1 µM
[9] = second compound 10 µM, first compound 0.0316 µM
[10] = second compound 10 µM, first compound 0.1 µM

## Cn1ncnc1C1c2n[nH]c(=O)c3cc(F)cc(c23)NC1c1ccc(F)cc1 (stereo not given) + Cc1ccccc1N=Nc1ccc(NC(=O)c2ccnn2C)c(C)c1
Second compound 0.1 µM
  IC50: > 100 nM
Second compound 0.316 µM
  IC50: > 100 nM
Second compound 1 µM
  IC50: > 100 nM
Second compound 3.16 µM
  IC50: > 100 nM
Second compound 10 µM
  IC50: > 100 nM
Second compound 0.1 µM, first compound 0.000316 µM
  viability, T/C: 105%
Second compound 0.1 µM, first compound 0.001 µM
  viability, T/C: 107%
Second compound 0.1 µM, first compound 0.00316 µM
  viability, T/C: 101%
Second compound 0.1 µM, first compound 0.01 µM
  viability, T/C: 96.2%
[1]
  viability, T/C: 94.5%
[2]
  viability, T/C: 90.9%
Second compound 0.316 µM, first compound 0.000316 µM
  viability, T/C: 108%
Second compound 0.316 µM, first compound 0.001 µM
  viability, T/C: 110%
Second compound 0.316 µM, first compound 0.00316 µM
  viability, T/C: 104%
Second compound 0.316 µM, first compound 0.01 µM
  viability, T/C: 102%
[3]
  viability, T/C: 96.6%
[4]
  viability, T/C: 98.8%
Second compound 1 µM, first compound 0.000316 µM
  viability, T/C: 111%
Second compound 1 µM, first compound 0.001 µM
  viability, T/C: 113%
Second compound 1 µM, first compound 0.00316 µM
  viability, T/C: 111%
Second compound 1 µM, first compound 0.01 µM
  viability, T/C: 102%
[5]
  viability, T/C: 101%
[6]
  viability, T/C: 102%
Second compound 3.16 µM, first compound 0.000316 µM
  viability, T/C: 110%
Second compound 3.16 µM, first compound 0.001 µM
  viability, T/C: 116%
Second compound 3.16 µM, first compound 0.00316 µM
  viability, T/C: 118%
Second compound 3.16 µM, first compound 0.01 µM
  viability, T/C: 109%
[7]
  viability, T/C: 101%
[8]
  viability, T/C: 108%
Second compound 10 µM, first compound 0.000316 µM
  viability, T/C: 106%
Second compound 10 µM, first compound 0.001 µM
  viability, T/C: 105%
Second compound 10 µM, first compound 0.00316 µM
  viability, T/C: 102%
Second compound 10 µM, first compound 0.01 µM
  viability, T/C: 105%
[9]
  viability, T/C: 102%
[10]
  viability, T/C: 102%

## NS(=O)(=O)OCC1CC(n2ccc3c(NC4CCc5ccccc54)ncnc32)CC1O (stereo not given) + Cc1ccccc1N=Nc1ccc(NC(=O)c2ccnn2C)c(C)c1
Second compound 0.1 µM
  IC50: 201 nM
Second compound 0.316 µM
  IC50: 178 nM
Second compound 1 µM
  IC50: 141 nM
Second compound 3.16 µM
  IC50: 96.3 nM
Second compound 10 µM
  IC50: 94.6 nM
[1]
  viability, T/C: 96.4%
[2]
  viability, T/C: 66.9%
Second compound 0.1 µM, first compound 0.316 µM
  viability, T/C: 40.8%
Second compound 0.1 µM, first compound 1 µM
  viability, T/C: 16.2%
Second compound 0.1 µM, first compound 3.16 µM
  viability, T/C: 9.98%
Second compound 0.1 µM, first compound 10 µM
  viability, T/C: 10.5%
[3]
  viability, T/C: 88.3%
[4]
  viability, T/C: 63.3%
Second compound 0.316 µM, first compound 0.316 µM
  viability, T/C: 37.8%
Second compound 0.316 µM, first compound 1 µM
  viability, T/C: 14.3%
Second compound 0.316 µM, first compound 3.16 µM
  viability, T/C: 11.1%
Second compound 0.316 µM, first compound 10 µM
  viability, T/C: 9.31%
[5]
  viability, T/C: 82.5%
[6]
  viability, T/C: 55.6%
Second compound 1 µM, first compound 0.316 µM
  viability, T/C: 36.2%
Second compound 1 µM, first compound 1 µM
  viability, T/C: 14.2%
Second compound 1 µM, first compound 3.16 µM
  viability, T/C: 9.92%
Second compound 1 µM, first compound 10 µM
  viability, T/C: 9.81%
[7]
  viability, T/C: 66.6%
[8]
  viability, T/C: 47.7%
Second compound 3.16 µM, first compound 0.316 µM
  viability, T/C: 32.2%
Second compound 3.16 µM, first compound 1 µM
  viability, T/C: 12.7%
Second compound 3.16 µM, first compound 3.16 µM
  viability, T/C: 9.52%
Second compound 3.16 µM, first compound 10 µM
  viability, T/C: 8.47%
[9]
  viability, T/C: 69.5%
[10]
  viability, T/C: 47.7%
Second compound 10 µM, first compound 0.316 µM
  viability, T/C: 29.2%
Second compound 10 µM, first compound 1 µM
  viability, T/C: 11%
Second compound 10 µM, first compound 3.16 µM
  viability, T/C: 7.66%
Second compound 10 µM, first compound 10 µM
  viability, T/C: 7.56%

## Nc1ncn(C2CC(O)C(CO)S2)c(=O)n1 (stereo not given) + Cc1ccccc1N=Nc1ccc(NC(=O)c2ccnn2C)c(C)c1
Second compound 0.1 µM
  IC50: > 300 nM
Second compound 0.316 µM
  IC50: > 300 nM
Second compound 1 µM
  IC50: > 300 nM
Second compound 3.16 µM
  IC50: > 300 nM
Second compound 10 µM
  IC50: > 300 nM
Second compound 0.1 µM, first compound 0.000949 µM
  viability, T/C: 105%
Second compound 0.1 µM, first compound 0.003 µM
  viability, T/C: 108%
Second compound 0.1 µM, first compound 0.00949 µM
  viability, T/C: 105%
Second compound 0.1 µM, first compound 0.03 µM
  viability, T/C: 101%
Second compound 0.1 µM, first compound 0.0949 µM
  viability, T/C: 87.4%
Second compound 0.1 µM, first compound 0.3 µM
  viability, T/C: 79%
Second compound 0.316 µM, first compound 0.000949 µM
  viability, T/C: 113%
Second compound 0.316 µM, first compound 0.003 µM
  viability, T/C: 109%
Second compound 0.316 µM, first compound 0.00949 µM
  viability, T/C: 112%
Second compound 0.316 µM, first compound 0.03 µM
  viability, T/C: 106%
Second compound 0.316 µM, first compound 0.0949 µM
  viability, T/C: 86.5%
Second compound 0.316 µM, first compound 0.3 µM
  viability, T/C: 77.8%
Second compound 1 µM, first compound 0.000949 µM
  viability, T/C: 114%
Second compound 1 µM, first compound 0.003 µM
  viability, T/C: 115%
Second compound 1 µM, first compound 0.00949 µM
  viability, T/C: 113%
Second compound 1 µM, first compound 0.03 µM
  viability, T/C: 108%
Second compound 1 µM, first compound 0.0949 µM
  viability, T/C: 95%
Second compound 1 µM, first compound 0.3 µM
  viability, T/C: 82.5%
Second compound 3.16 µM, first compound 0.000949 µM
  viability, T/C: 112%
Second compound 3.16 µM, first compound 0.003 µM
  viability, T/C: 112%
Second compound 3.16 µM, first compound 0.00949 µM
  viability, T/C: 114%
Second compound 3.16 µM, first compound 0.03 µM
  viability, T/C: 110%
Second compound 3.16 µM, first compound 0.0949 µM
  viability, T/C: 95.6%
Second compound 3.16 µM, first compound 0.3 µM
  viability, T/C: 80%
Second compound 10 µM, first compound 0.000949 µM
  viability, T/C: 107%
Second compound 10 µM, first compound 0.003 µM
  viability, T/C: 111%
Second compound 10 µM, first compound 0.00949 µM
  viability, T/C: 108%
Second compound 10 µM, first compound 0.03 µM
  viability, T/C: 108%
Second compound 10 µM, first compound 0.0949 µM
  viability, T/C: 89.2%
Second compound 10 µM, first compound 0.3 µM
  viability, T/C: 78.8%
